The data set concerns anaesthesized rats. Put plainly: wheal test, intradermal injection. The data set is classed as in vivo, rat. The following applies: 10 ug peptide intradermally; for Wheal: Table I. In short, it runs like this: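 Anaesthetized rats given intradermal injection of 10 ug peptide in 100 ul saline; area of the wheal calculated from its diameter.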

Starred links: 1 amine or outer side, 2 acyl side, 3 side chain; linkers in the order of their positions; H or OH if unused. Non-standard residues stand in square brackets, D forms with d. Residues, ends and D or L forms follow the SMILES beside them. *: point of attachment. dAla(cis-4-NHCOPyz-cHex) = N[C@H](C[C@H]1CC[C@@H](NC(=O)c2cnccn2)CC1)C(=O)O; X4 = O=C(N[C@H]1CC[C@@H](C[C@@H](N[*:1])C(=O)[*:2])CC1)c1cccnc1; X8 = O=C(N[C@H]1CC[C@@H](C[C@@H](N[*:1])C(=O)[*:2])CC1)c1ccncn1; X9 = CN=C(NCCC[C@H](N[*:1])C(=O)[*:2])N(C)C; dPhe(4-Cl) = N[C@H](Cc1ccc(Cl)cc1)C(=O)O; X10 = O=C([C@@H](Cc1cnccn1)N[*:1])[*:2]; d2Nal = N[C@H](Cc1ccc2ccccc2c1)C(=O)O; Lys(iPr) = CC(C)NCCCC[C@H](N)C(=O)O; Orn(iPr) = CC(C)NCCC[C@H](N)C(=O)O; Pyrazinecarbonyl = O=C(c1cnccn1)*; 3Pal = N[C@@H](Cc1cccnc1)C(=O)O; d3Pal = N[C@H](Cc1cccnc1)C(=O)O; Nicotinoyl = O=C(c1cccnc1)*; Picolinoyl = O=C(c1ccccn1)*; Pip = O=C(O)[C@@H]1CCCCN1; Orn = NCCC[C@H](N)C(=O)O; Nva = CCC[C@H](N)C(=O)O

`CN=C(NCCC[C@H](NC(=O)[C@H](CC(C)C)NC(=O)[C@@H](CCCCNC(=O)c1cccnc1)NC(=O)[C@H](CCCCNC(=O)c1cccnc1)NC(=O)[C@H](CO)NC(=O)[C@@H](Cc1cccnc1)NC(=O)[C@@H](Cc1ccc(Cl)cc1)NC(=O)[C@@H](Cc1ccc2ccccc2c1)NC(C)=O)C(=O)N1CCC[C@H]1C(=O)N[C@H](C)C(N)=O)N(C)C` [compound 24987] (Ac-[d2Nal][dPhe(4-Cl)][d3Pal]SK(Nicotinoyl)[dK](Nicotinoyl)L[X9]P[dA]-NH2) registered a Wheal of 150.9 ± 14.0 mm^2 /10.

Take `CC(=O)N[C@H](Cc1ccc2ccccc2c1)C(=O)N[C@H](Cc1ccc(Cl)cc1)C(=O)N[C@H](Cc1cccnc1)C(=O)N[C@@H](CO)C(=O)N[C@@H](Cc1cccnc1)C(=O)N[C@H](CCCCNC(=O)c1cccnc1)C(=O)N[C@@H](CC(C)C)C(=O)N[C@@H](CCCNC(C)C)C(=O)N1CCC[C@H]1C(=O)N[C@H](C)C(N)=O` [compound 25384] (Ac-[d2Nal][dPhe(4-Cl)][d3Pal]S[3Pal][dK](Nicotinoyl)L[Orn(iPr)]P[dA]-NH2): the Wheal is 139.9 mm^2 /10.

On to `CC(=O)N[C@H](Cc1ccc2ccccc2c1)C(=O)N[C@H](Cc1ccc(Cl)cc1)C(=O)N[C@H](Cc1cccnc1)C(=O)N[C@@H](CO)C(=O)N[C@@H](CCCCNC(=O)c1ccccn1)C(=O)N[C@H](C[C@H]1CC[C@@H](NC(=O)c2ccncn2)CC1)C(=O)N[C@@H](CC(C)C)C(=O)N[C@@H](CCCCNC(C)C)C(=O)N1CCC[C@H]1C(=O)N[C@H](C)C(N)=O` [compound 26323] (Ac-[d2Nal][dPhe(4-Cl)][d3Pal]SK(Picolinoyl)[X8]L[Lys(iPr)]P[dA]-NH2), for which the “Wheal Area” value came out at 120.4 ± 4.7 mm^2 /10 μg.

In the case of `CC(=O)N[C@H](Cc1ccc2ccccc2c1)C(=O)N[C@H](Cc1ccc(Cl)cc1)C(=O)N[C@H](Cc1cccnc1)C(=O)N[C@@H](CO)C(=O)N[C@@H](CCCCNC(=O)c1cccnc1)C(=O)N[C@H](C[C@H]1CC[C@@H](NC(=O)c2cccnc2)CC1)C(=O)N[C@@H](CC(C)C)C(=O)N[C@@H](CCCCNC(C)C)C(=O)N1CCC[C@H]1C(=O)N[C@H](C)C(N)=O` [compound 25648] (Ac-[d2Nal][dPhe(4-Cl)][d3Pal]SK(Nicotinoyl)[X4]L[Lys(iPr)]P[dA]-NH2), the Wheal worked out at 113.6 mm^2 /10.

`CCC[C@H](NC(=O)[C@@H](CCCCNC(=O)c1ccccn1)NC(=O)[C@H](CCCCNC(=O)c1ccccn1)NC(=O)[C@H](CO)NC(=O)[C@@H](Cc1cccnc1)NC(=O)[C@@H](Cc1ccc(Cl)cc1)NC(=O)[C@@H](Cc1ccc2ccccc2c1)NC(C)=O)C(=O)N[C@@H](CCCCNC(C)C)C(=O)N1CCC[C@H]1C(=O)N[C@H](C)C(N)=O` [compound 25989] (Ac-[d2Nal][dPhe(4-Cl)][d3Pal]SK(Picolinoyl)[dK](Picolinoyl)[Nva][Lys(iPr)]P[dA]-NH2): the “Wheal Area” value turned out to be 95.3 ± 6.0 mm^2 /10 μg.

In the case of `CC(=O)N[C@H](Cc1ccc2ccccc2c1)C(=O)N[C@H](Cc1ccc(Cl)cc1)C(=O)N[C@H](Cc1cccnc1)C(=O)N[C@@H](CO)C(=O)N[C@@H](CCCCNC(=O)c1cccnc1)C(=O)N[C@H](CCCCNC(=O)c1cnccn1)C(=O)N[C@@H](CC(C)C)C(=O)N[C@@H](CCCNC(C)C)C(=O)N1CCC[C@H]1C(=O)N[C@H](C)C(N)=O` [compound 25991] (Ac-[d2Nal][dPhe(4-Cl)][d3Pal]SK(Nicotinoyl)[dK](Pyrazinecarbonyl)L[Orn(iPr)]P[dA]-NH2), the “Wheal Area” value is 104.3 ± 10.5 mm^2 /10 μg.

In the case of `CC(=O)N[C@H](Cc1ccc2ccccc2c1)C(=O)N[C@H](Cc1ccc(Cl)cc1)C(=O)N[C@H](Cc1cccnc1)C(=O)N[C@@H](CO)C(=O)N[C@@H](CCCCNC(=O)c1ccccn1)C(=O)N[C@H](C[C@H]1CC[C@@H](NC(=O)c2cnccn2)CC1)C(=O)N[C@@H](CC(C)C)C(=O)N[C@@H](CCCCNC(C)C)C(=O)N1CCC[C@H]1C(=O)N[C@H](C)C(N)=O` [IBR 25897] (Ac-[d2Nal][dPhe(4-Cl)][d3Pal]SK(Picolinoyl)[dAla(cis-4-NHCOPyz-cHex)]L[Lys(iPr)]P[dA]-NH2), the “Wheal Area” value was determined as 122.8 ± 5.7 mm^2 /10 μg.

As for `CC(=O)N[C@H](Cc1ccc2ccccc2c1)C(=O)N[C@H](Cc1ccc(Cl)cc1)C(=O)N[C@H](Cc1cccnc1)C(=O)N[C@@H](CO)C(=O)N[C@@H](CCCCNC(=O)c1ccccn1)C(=O)N[C@H](CCCCNC(=O)c1ccccn1)C(=O)N[C@H](C(=O)N[C@@H](CCCCNC(C)C)C(=O)N1CCC[C@H]1C(=O)N[C@H](C)C(N)=O)C(C)C` [compound 25934] (Ac-[d2Nal][dPhe(4-Cl)][d3Pal]SK(Picolinoyl)[dK](Picolinoyl)V[Lys(iPr)]P[dA]-NH2), the “Wheal Area” value came to 97.9 ± 2.9 mm^2 /10 μg.

As to `CC(=O)N[C@H](Cc1ccc2ccccc2c1)C(=O)N[C@H](Cc1ccc(Cl)cc1)C(=O)N[C@H](Cc1cccnc1)C(=O)N[C@@H](CO)C(=O)N[C@@H](CCCCNC(C)C)C(=O)N[C@H](CCCCNC(=O)c1cccnc1)C(=O)N[C@@H](CC(C)C)C(=O)N[C@@H](CCCCNC(=O)c1cccnc1)C(=O)N1CCC[C@H]1C(=O)N[C@H](C)C(N)=O` [compound 24746] (Ac-[d2Nal][dPhe(4-Cl)][d3Pal]S[Lys(iPr)][dK](Nicotinoyl)LK(Nicotinoyl)P[dA]-NH2), the Wheal is given as 132.8 ± 5.9 mm^2 /10.

With `CC(=O)N[C@H](Cc1ccc2ccccc2c1)C(=O)N[C@H](Cc1ccc(Cl)cc1)C(=O)N[C@H](Cc1cccnc1)C(=O)N[C@@H](CO)C(=O)N[C@@H](Cc1ccc(O)cc1)C(=O)N[C@H](C[C@H]1CC[C@@H](NC(=O)c2cnccn2)CC1)C(=O)N[C@@H](CC(C)C)C(=O)N[C@@H](CCCCNC(C)C)C(=O)N1CCC[C@H]1C(=O)N[C@H](C)C(N)=O` [compound 26418] (Ac-[d2Nal][dPhe(4-Cl)][d3Pal]SY[dAla(cis-4-NHCOPyz-cHex)]L[Lys(iPr)]P[dA]-NH2), the “Wheal Area” value was determined as 95.0 ± 0 mm^2 /10 μg.

`CC(=O)N[C@H](Cc1ccc2ccccc2c1)C(=O)N[C@H](Cc1ccc(Cl)cc1)C(=O)N[C@H](Cc1cccnc1)C(=O)N[C@@H](CO)C(=O)N[C@@H](CCCCNC(=O)c1ccccn1)C(=O)N[C@H](CCCCNC(=O)c1ccccn1)C(=O)N[C@@H](CC(C)C)C(=O)N[C@@H](CCCCNC(C)C)C(=O)N1CCCC[C@H]1C(=O)N[C@H](C)C(N)=O` [compound 25937] (Ac-[d2Nal][dPhe(4-Cl)][d3Pal]SK(Picolinoyl)[dK](Picolinoyl)L[Lys(iPr)][Pip][dA]-NH2): the “Wheal Area” value is reported as 95.0 ± 0 mm^2 /10 μg.

Consider `CC(=O)N[C@H](Cc1ccc2ccccc2c1)C(=O)N[C@H](Cc1ccc(Cl)cc1)C(=O)N[C@H](Cc1cnccn1)C(=O)N[C@@H](CO)C(=O)N[C@@H](CCCCNC(=O)c1ccccn1)C(=O)N[C@H](CCCCNC(=O)c1ccccn1)C(=O)N[C@@H](CC(C)C)C(=O)N[C@@H](CCCNC(C)C)C(=O)N1CCC[C@H]1C(=O)N[C@H](C)C(N)=O` [compound 26119] (Ac-[d2Nal][dPhe(4-Cl)][X10]SK(Picolinoyl)[dK](Picolinoyl)L[Orn(iPr)]P[dA]-NH2), for which the “Wheal Area” value is reported as 103.9 ± 3.4 mm^2 /10 μg.

Compound `CC(=O)N[C@H](Cc1ccc2ccccc2c1)C(=O)N[C@H](Cc1ccc(Cl)cc1)C(=O)N[C@H](Cc1cccnc1)C(=O)N[C@@H](CO)C(=O)N[C@@H](CCCNC(=O)c1cccnc1)C(=O)N[C@H](CCCCNC(=O)c1cccnc1)C(=O)N[C@@H](CC(C)C)C(=O)N[C@@H](CCCNC(C)C)C(=O)N1CCC[C@H]1C(=O)N[C@H](C)C(N)=O` [compound 25333] (Ac-[d2Nal][dPhe(4-Cl)][d3Pal]S[Orn](Nicotinoyl)[dK](Nicotinoyl)L[Orn(iPr)]P[dA]-NH2) came in with a Wheal of 113.6 mm^2 /10.

The compound `CC(=O)N[C@H](Cc1ccc2ccccc2c1)C(=O)N[C@H](Cc1ccc(Cl)cc1)C(=O)N[C@H](Cc1cccnc1)C(=O)N[C@@H](CO)C(=O)N[C@@H](CCCCNC(=O)c1cccnc1)C(=O)N[C@H](CCCCNC(=O)c1ccccn1)C(=O)N[C@@H](CC(C)C)C(=O)N[C@@H](CCCCNC(C)C)C(=O)N1CCC[C@H]1C(=O)N[C@H](C)C(N)=O` [compound 25589] (Ac-[d2Nal][dPhe(4-Cl)][d3Pal]SK(Nicotinoyl)[dK](Picolinoyl)L[Lys(iPr)]P[dA]-NH2) returned a Wheal of 120 ± 7 mm^2 /10.

On to `CC(=O)N[C@H](Cc1ccc2ccccc2c1)C(=O)N[C@H](Cc1ccc(Cl)cc1)C(=O)N[C@H](CCCCNC(=O)c1cccnc1)C(=O)N[C@@H](CO)C(=O)N[C@@H](Cc1ccc(O)cc1)C(=O)N[C@H](CCCCNC(=O)c1cccnc1)C(=O)N[C@@H](CC(C)C)C(=O)N[C@@H](CCCNC(=N)N)C(=O)N1CCC[C@H]1C(=O)N[C@H](C)C(N)=O` [compound 24597] (Ac-[d2Nal][dPhe(4-Cl)][dK](Nicotinoyl)SY[dK](Nicotinoyl)LRP[dA]-NH2), for which the Wheal is 101.0 mm^2 /10.

For `CC(=O)N[C@H](Cc1ccc2ccccc2c1)C(=O)N[C@H](Cc1ccc(Cl)cc1)C(=O)N[C@H](Cc1cccnc1)C(=O)N[C@@H](CO)C(=O)N[C@@H](Cc1ccc(O)cc1)C(=O)N[C@H](CCCCNC(=O)c1cccnc1)C(=O)N[C@@H](CC(C)C)C(=O)N[C@@H](CCCNC(=N)N)C(=O)N1CCC[C@H]1C(=O)N[C@H](C)C(N)=O` [compound 22396] (Ac-[d2Nal][dPhe(4-Cl)][d3Pal]SY[dK](Nicotinoyl)LRP[dA]-NH2), the Wheal was determined as 85 mm^2 /10.

The compound `CC(=O)N[C@H](Cc1ccc2ccccc2c1)C(=O)N[C@H](Cc1ccc(Cl)cc1)C(=O)N[C@H](Cc1cccnc1)C(=O)N[C@@H](CO)C(=O)N[C@@H](CCCCNC(=O)c1cccnc1)C(=O)N[C@H](CCCCNC(=O)c1cnccn1)C(=O)N[C@@H](CC(C)C)C(=O)N[C@@H](CCCCNC(C)C)C(=O)N1CCC[C@H]1C(=O)N[C@H](C)C(N)=O` [compound 25649] (Ac-[d2Nal][dPhe(4-Cl)][d3Pal]SK(Nicotinoyl)[dK](Pyrazinecarbonyl)L[Lys(iPr)]P[dA]-NH2) yielded a Wheal of 122.2 ± 5.1 mm^2 /10.

Compound `CC(=O)N[C@H](Cc1ccc2ccccc2c1)C(=O)N[C@H](Cc1ccc(Cl)cc1)C(=O)N[C@H](Cc1cccnc1)C(=O)N[C@@H](CO)C(=O)N[C@@H](CCCNC(=N)N)C(=O)N[C@H](CCCCNC(=O)c1cccnc1)C(=O)N[C@@H](CC(C)C)C(=O)N[C@@H](CCCNC(=N)N)C(=O)N1CCC[C@H]1C(=O)N[C@H](C)C(N)=O` [compound 24199] (Ac-[d2Nal][dPhe(4-Cl)][d3Pal]SR[dK](Nicotinoyl)LRP[dA]-NH2) gave a Wheal of 146.8 mm^2 /10.

The record behind these values is patent US5763404A, “Methods for using LHRH antagonists with low histamine release” (priority 1995, dated 1998).
